In patent publication US11464770B2, “Anticancer pharmaceutical composition” (NATIONAL CANCER CENTER, priority 2016, dated 2022):
Where two headings read alike, the source gives them in different places.

Legend:
[1] = test system: prostate cancer cell lines (e.g. DU145/TXR); assay: Cell based assay, cell viability (CellTiter-Glo), prostate cancer cell lines; details: Homo sapiens, 72 hours treatment, final concentration 0 to 2 μM
Procedure, shortened: (§1)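 Luminescent ATP assay quantified surviving cells after three days of treatment. Compound was applied at final concentrations of 0 to 2 μM, starting 24 h after cells were seeded.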

[2] = test system: blood cancer cell lines (e.g. HL-60, Jurkat, Raji, Ramos, Daudi, MOLT-4); assay: Cell based assay, cell viability (CellTiter-Glo), blood cancer cell lines; details: Homo sapiens
Procedure, shortened: as §1

brain cancer cell lines = assay: Cell based assay, cell viability (CellTiter-Glo), brain cancer cell lines; details: Homo sapiens
[3] = test system: RT4: human urinary bladder transitional cell papilloma; assay: Cell based assay, cytotoxicity in RT4 papilloma cells (selectivity); details: Homo sapiens, RT-4; RT4 cells
[4] = CWR22 cells, read-out: IC50, prostate cancer cell line CWR22
[5] = DU-145, DU145/TXR cells, read-out: IC50, prostate cancer cell line DU145/TXR
[6] = DU-145, DU145 cells, read-out: IC50, prostate cancer cell line DU145
[7] = LNcap cells, read-out: IC50, prostate cancer cell line LNcap
[8] = MV4-11, blood cancer cell line MV-4-11, 72 hours, read-out: IC50, MV-4-11
[9] = blood cancer cell line Daudi, 72 hours, read-out: IC50, Daudi
[10] = blood cancer cell line HL-60, 72 hours, read-out: IC50, HL-60
[11] = blood cancer cell line Jurkat, 72 hours, read-out: IC50, Jurkat
[12] = blood cancer cell line MOLT-4, 72 hours, read-out: IC50, MOLT-4
[13] = blood cancer cell line Raji, 72 hours, read-out: IC50, Raji
[14] = blood cancer cell line Ramos (RA 1), 72 hours, read-out: IC50, Ramos (RA 1)
[15] = blood cancer cell line U-937, 72 hours, read-out: IC50, U-937
[16] = U138-MG, U-138 MG cell line, read-out: IC50, Brain cancer cell line U-138 MG
[17] = T98G cell line, read-out: IC50, Brain cancer cell line T98G
[18] = U-251 MG cell line, read-out: IC50, Brain cancer cell line U-251 MG
[19] = PC-3 cells, read-out: IC50, prostate cancer cell line PC-3

| Structure (SMILES) | IC50 [1, 4] | IC50 [1, 5] | IC50 [1, 6] | IC50 [1, 7] | IC50 [2, 8] | IC50 [2, 9] | IC50 [2, 10] | IC50 [2, 11] | IC50 [2, 12] | IC50 [2, 13] | IC50 [2, 14] | IC50 [2, 15] | IC50 (brain cancer cell lines; [16]) | IC50 (brain cancer cell lines; [17]) | IC50 (brain cancer cell lines; [18]) | IC50 [1, 19] | IC50 [3] |
| --- | --- | --- | --- | --- | --- | --- | --- | --- | --- | --- | --- | --- | --- | --- | --- | --- | --- |
| CC(=O)c1c([S+]([O-])Cc2ccc(SC(F)(F)F)cc2)[nH]c2c(Cl)ccc(Cl)c2c1=O (stereo not shown) [Compound 79, 3-acetyl-5,8-dichloro-2-((4-((trifluoromethyl)thio)benzyl)sulfinyl)quinolin-4(1H)-one] | > 2000 nM | > 2000 nM | > 2000 nM | > 2000 nM | > 2000 nM | > 2000 nM | > 2000 nM | > 2000 nM | > 2000 nM | > 2000 nM | > 2000 nM | > 2000 nM | > 10000 nM | > 10000 nM | > 2000 nM | – | > 10 µM |
| CC(=O)c1c([S+]([O-])Cc2ccc(S(F)(F)(F)(F)F)cc2)[nH]c2c(F)ccc(F)c2c1=O (stereo not shown) [Compound 80, 3-acetyl-5,8-difluoro-2-((4-(pentafluoro--sulfanyl)benzyl)sulfinyl)quinolin-4(1H)-one] | > 2000 nM | > 2000 nM | > 2000 nM | > 2000 nM | > 2000 nM | > 2000 nM | > 2000 nM | > 2000 nM | > 2000 nM | > 2000 nM | > 2000 nM | > 2000 nM | > 10000 nM | > 10000 nM | > 2000 nM | – | > 10 µM |
| CC(=O)c1c([S+]([O-])Cc2ccc(C(F)(F)F)o2)[nH]c2c(F)ccc(F)c2c1=O (stereo not shown) [Compound 81, 3-acetyl-5,8-difluoro-2-(((5-(trifluoromethyl)furan-2-yl)methyl)sulfinyl)quinolin-4(1H)-one] | > 2000 nM | > 2000 nM | > 2000 nM | > 2000 nM | > 2000 nM | > 2000 nM | > 2000 nM | > 2000 nM | > 2000 nM | > 2000 nM | > 2000 nM | > 2000 nM | > 2000 nM | > 10000 nM | > 2000 nM | – | > 10 µM |
| CC(=O)c1c([S+]([O-])Cc2cc(C)on2)[nH]c2c(F)ccc(F)c2c1=O (stereo not shown) [Compound 82, 3-acetyl-5,8-difluoro-2-(((5-methylisoxazol-3-yl)methyl)sulfinyl)quinolin-4(1H)-one] | > 2000 nM | > 2000 nM | > 2000 nM | > 2000 nM | > 2000 nM | > 2000 nM | > 2000 nM | > 2000 nM | > 2000 nM | > 2000 nM | > 2000 nM | > 2000 nM | > 2000 nM | > 10000 nM | > 2000 nM | – | > 10 µM |
| CC(C)C(=O)c1c([S+]([O-])Cc2ccc(SC(F)(F)F)cc2)[nH]c2c(F)ccc(F)c2c1=O (stereo not shown) [Compound 85, 5,8-difluoro-3-isobutyryl-2-((4-((trifluoromethyl)thio)benzyl)sulfinyl)quinolin-4(1H)-one] | > 2000 nM | > 2000 nM | > 2000 nM | > 2000 nM | > 2000 nM | > 2000 nM | > 2000 nM | > 2000 nM | > 2000 nM | > 2000 nM | > 2000 nM | > 2000 nM | > 10000 nM | > 10000 nM | > 2000 nM | – | > 10 µM |
| O=C(c1ccccc1)c1c([S+]([O-])Cc2ccc(S(F)(F)(F)(F)F)cc2)[nH]c2c(F)ccc(F)c2c1=O (stereo not shown) [Compound 87, 3-benzoyl-5,8-difluoro-2-((4-(pentafluoro--sulfanyl)benzyl)sulfinyl)quinolin-4(1H)-one] | > 2000 nM | > 2000 nM | > 2000 nM | > 2000 nM | > 2000 nM | > 2000 nM | > 2000 nM | > 2000 nM | > 2000 nM | > 2000 nM | > 2000 nM | > 2000 nM | > 10000 nM | > 10000 nM | > 2000 nM | – | > 10 µM |
| Cc1cc(C[S+]([O-])c2[nH]c3c(Cl)ccc(Cl)c3c(=O)c2C(=O)c2ccccc2)no1 (stereo not shown) [Compound 88, 3-benzoyl-5,8-dichloro-2-(((5-methylisoxazol-3-yl)methyl)sulfinyl)quinolin-4(1H)-one] | > 2000 nM | > 2000 nM | > 2000 nM | > 2000 nM | > 2000 nM | > 2000 nM | > 2000 nM | > 2000 nM | > 2000 nM | > 2000 nM | > 2000 nM | > 2000 nM | > 10000 nM | > 10000 nM | > 2000 nM | – | > 10 µM |
| CC(=O)c1c([S+]([O-])CN2C(=O)c3ccccc3C2=O)[nH]c2c(Cl)ccc(Cl)c2c1=O (stereo not shown) [Compound 90, 2-(((3-acetyl-5,8-dichloro-4-oxo-1,4-dihydroquinolin-2-yl)sulfinyl)methyl)isoindoline-1,3-dione] | > 2000 nM | > 2000 nM | > 2000 nM | > 2000 nM | > 2000 nM | > 2000 nM | > 2000 nM | > 2000 nM | > 2000 nM | > 2000 nM | > 2000 nM | > 2000 nM | > 10000 nM | > 10000 nM | > 2000 nM | > 2000 nM | > 10 µM |
| COC(=O)c1ccc(C[S+]([O-])c2[nH]c3c(Cl)ccc(Cl)c3c(=O)c2C(C)=O)cc1 (stereo not shown) [Compound 91, methyl 4-(((3-acetyl-5,8-dichloro-4-oxo-1,4-dihydroquinolin-2-yl)sulfinyl)methyl)benzoate] | > 2000 nM | 1980 nM | > 2000 nM | > 2000 nM | > 2000 nM | > 2000 nM | > 2000 nM | 1730 nM | > 2000 nM | > 2000 nM | > 2000 nM | > 2000 nM | > 2000 nM | > 10000 nM | > 2000 nM | – | > 10 µM |
| COc1cccc2[nH]c(SCc3ccc(S(F)(F)(F)(F)F)cc3)c(C(C)=O)c(=O)c12 [Compound 92, 3-acetyl-5-methoxy-2-((4-(pentafluoro--sulfanyl)benzyl)thio)quinolin-4(1H)-one] | > 2000 nM | > 2000 nM | > 2000 nM | > 2000 nM | > 2000 nM | > 2000 nM | > 2000 nM | > 2000 nM | > 2000 nM | > 2000 nM | > 2000 nM | > 2000 nM | > 10000 nM | > 10000 nM | > 2000 nM | > 2000 nM | > 10 µM |
| COc1cccc2[nH]c([S+]([O-])Cc3ccc(S(F)(F)(F)(F)F)cc3)c(C(C)=O)c(=O)c12 (stereo not shown) [Compound 93, 3-acetyl-5-methoxy-2-((4-(pentafluoro--sulfanyl)benzyl)sulfinyl)quinolin-4(1H)-one] | > 2000 nM | > 2000 nM | > 2000 nM | > 2000 nM | > 2000 nM | > 2000 nM | > 2000 nM | > 2000 nM | > 2000 nM | > 2000 nM | > 2000 nM | > 2000 nM | > 10000 nM | > 10000 nM | > 2000 nM | – | > 10 µM |

Second part, led by results:

| IC50 [1, 4] | IC50 [1, 5] | IC50 [1, 6] | IC50 [1, 7] | IC50 [2, 8] | IC50 [2, 9] | IC50 [2, 10] | IC50 [2, 11] | IC50 [2, 12] | IC50 [2, 13] | IC50 [2, 14] | IC50 [2, 15] | IC50 (brain cancer cell lines; [16]) | IC50 (brain cancer cell lines; [17]) | IC50 (brain cancer cell lines; [18]) | IC50 [1, 19] | Structure (SMILES) | IC50 [3] |
| --- | --- | --- | --- | --- | --- | --- | --- | --- | --- | --- | --- | --- | --- | --- | --- | --- | --- |
| > 2000 nM | > 2000 nM | > 2000 nM | > 2000 nM | 1380 nM | > 2000 nM | > 2000 nM | > 2000 nM | > 2000 nM | > 2000 nM | > 2000 nM | > 2000 nM | > 2000 nM | > 10000 nM | > 2000 nM | – | COc1cccc2[nH]c([S+]([O-])Cc3cc(C)on3)c(C(C)=O)c(=O)c12 (stereo not shown) [Compound 94, 3-acetyl-5-methoxy-2-(((5-methylisoxazol-3-yl)methyl)sulfinyl)quinolin-4(1H)-one] | > 10 µM |
| 1900 nM | 1770 nM | 1740 nM | > 2000 nM | 1160 nM | 1370 nM | 1650 nM | 590 nM | > 2000 nM | 1660 nM | 1060 nM | > 2000 nM | > 2000 nM | > 10000 nM | 1310 nM | > 2000 nM | Cc1cc(C[S+]([O-])c2[nH]c3c(Br)ccc(Cl)c3c(=O)c2C(=O)C2CC2)no1 (stereo not shown) [Compound 96, 8-bromo-5-chloro-3-(cyclopropanecarbonyl)-2-(((5-methylisoxazol-3-yl)methyl)sulfinyl)quinolin-4(1H)-one] | > 10 µM |
| 1480 nM | 1500 nM | 1280 nM | > 2000 nM | 800 nM | 1040 nM | > 2000 nM | 510 nM | 770 nM | 1290 nM | 700 nM | 1350 nM | 1690 nM | > 10000 nM | 1120 nM | 1700 nM | Cc1cc(C[S+]([O-])c2[nH]c3c(Cl)ccc(Cl)c3c(=O)c2C(=O)C2CC2)no1 (stereo not shown) [Compound 97, 5,8-dichloro-3-(cyclopropanecarbonyl)-2-(((5-methylisoxazol-3-yl)methyl)sulfinyl)quinolin-4(1H)-one] | > 10 µM |
| 1550 nM | 1910 nM | 1920 nM | > 2000 nM | 1240 nM | 1470 nM | > 2000 nM | 730 nM | > 2000 nM | > 2000 nM | 1230 nM | > 2000 nM | > 2000 nM | > 10000 nM | 1250 nM | > 2000 nM | CC(=O)c1c([S+]([O-])Cc2ccc(C#N)s2)[nH]c2c(Br)ccc(Cl)c2c1=O (stereo not shown) [Compound 98, 5-(((3-acetyl-8-bromo-5-chloro-4-oxo-1,4-dihydroquinolin-2-yl)sulfinyl)methyl)thiophene-2-carbonitrile] | > 10 µM |
| 1240 nM | 1060 nM | 970 nM | > 2000 nM | 950 nM | 1000 nM | > 2000 nM | 440 nM | 730 nM | 1250 nM | 840 nM | 1360 nM | 1160 nM | > 10000 nM | 790 nM | 1510 nM | CC(=O)c1c([S+]([O-])Cc2ccc(-n3cccn3)nc2)[nH]c2c(Br)ccc(Cl)c2c1=O (stereo not shown) [Compound 99, 2-(((6-(1H-pyrazol-1-yl)pyridin-3-yl)methyl)sulfinyl)-3-acetyl-8-bromo-5-chloroquinolin-4(1H)-one] | > 10 µM |
